Experimental data reported in US20020031795A1, “Nitrocoumarins for detecting all micro-organisms” (priority 1998, published 2002).

What was measured:
Assay in all cases: Fluorescence after 24 hours, serial dilutions in Trypticase Soy broth
Format in all cases: cell-based
[1] = test system: Acinetobacter baumanii (ATCC 19606)
Method: (§1) This experiment was performed to test 7-nitrocoumarin-3-carboxylic acid on sixteen (16) different types of microorganism, including one yeast species.
(§2) A mass of 10 mg of the indicator was dissolved in 4 ml of hot, distilled water and this solution was then added to 96 ml of Trypticase Soy broth. The resultant mixture was sterile-filtered.
(§3) All the microorganisms were grown for 24 hours in Trypticase Soy broth at 35° C. Each culture was then diluted 1,000-fold in Trypticase Soy broth and then serial 10-fold dilutions were made in more Trypticase Soy broth until the test aliquot contained no more microbial cells.
(§4) The resultant dilutions ranged from 10^−3 to 10^−13.
(§5) Fifty microliters of each dilution plus 50 μl of Trypticase Soy broth were added to wells of a microtiter plate with or without 7-nitrocoumarin-3-carboxylic acid.
(§6) The plates were read (T zero) and then incubated at 35° C. before being read again after 24 hours. Two different readings were made at each time point:
(§7) of the fluorescence (excitation at 365 nm and emission at 440 nm), using a Biolite F1 2001 fluorometer (Labtech International Limited), for wells containing 7-nitrocoumarin-3-carboxylic acid.

[2] = test system: Acinetobacter calcoaceticus (ATCC 7844)
Method: as §1, §2, §3, §4, §5, §6, §7

[3] = test system: Acinetobacter haemolyticus (ATCC 17906)
Method: as §1, §2, §3, §4, §5, §6, §7

[4] = test system: Listeria ivanovii (wild strain)
Method: as §1, §2, §3, §4, §5, §6, §7

[5] = test system: Moraxella nonliquefaciens (ATCC 19975)
Method: as §1, §2, §3, §4, §5, §6, §7

[6] = test system: Pseudomonas putida (ATCC 12633)
Method: as §1, §2, §3, §4, §5, §6, §7

[7] = test system: Serratia marcescens (NCTC 10211)
Method: as §1, §2, §3, §4, §5, §6, §7

[8] = test system: Shewanella putrefaciens (ATCC 8071)
Method: as §1, §2, §3, §4, §5, §6, §7

[9] = test system: Shigella sonnei (NCTC 8586)
Method: as §1, §2, §3, §4, §5, §6, §7

[10] = test system: Staphylococcus aureus (NCTC 6571)
Method: as §1, §2, §3, §4, §5, §6, §7

[11] = test system: Streptococcus mitis (NCTC 12261)
Method: as §1, §2, §3, §4, §5, §6, §7

## O=C(O)c1cc2ccc([N+](=O)[O-])cc2oc1=O [7-nitrocoumarin-3-carboxylic acid]
[1]; dilution 10^−3
  Fluorescence reading: 27016
[1]; dilution 10^−4
  Fluorescence reading: 11695
[1]; dilution 10^−5
  Fluorescence reading: 12525
[1]; dilution 10^−6
  Fluorescence reading: 8912
[1]; dilution 10^−7
  Fluorescence reading: 6953
[1]; dilution 10^−8
  Fluorescence reading: 1651
[1]; dilution 10^−9
  Fluorescence reading: 1705
[1]; dilution 10^−10
  Fluorescence reading: 1718
[1]; dilution 10^−11
  Fluorescence reading: 1678
[1]; dilution 10^−12
  Fluorescence reading: 1687
[1]; dilution 10^−13
  Fluorescence reading: 1660
[2]; dilution 10^−3
  Fluorescence reading: 29657
[2]; dilution 10^−4
  Fluorescence reading: 18288
[2]; dilution 10^−5
  Fluorescence reading: 12311
[2]; dilution 10^−6
  Fluorescence reading: 12223
[2]; dilution 10^−7
  Fluorescence reading: 11635
[2]; dilution 10^−8
  Fluorescence reading: 14858
[2]; dilution 10^−9
  Fluorescence reading: 13353
[2]; dilution 10^−10
  Fluorescence reading: 10862
[2]; dilution 10^−11
  Fluorescence reading: 1712
[2]; dilution 10^−12
  Fluorescence reading: 1654
[2]; dilution 10^−13
  Fluorescence reading: 1699
[3]; dilution 10^−3
  Fluorescence reading: 19231
[3]; dilution 10^−4
  Fluorescence reading: 17403
[3]; dilution 10^−5
  Fluorescence reading: 12614
[3]; dilution 10^−6
  Fluorescence reading: 9727
[3]; dilution 10^−7
  Fluorescence reading: 4236
[3]; dilution 10^−8
  Fluorescence reading: 1981
[3]; dilution 10^−9
  Fluorescence reading: 1938
[3]; dilution 10^−10
  Fluorescence reading: 2005
[3]; dilution 10^−11
  Fluorescence reading: 1947
[3]; dilution 10^−12
  Fluorescence reading: 1904
[3]; dilution 10^−13
  Fluorescence reading: 1938
[4]; dilution 10^−3
  Fluorescence reading: 16246
[4]; dilution 10^−4
  Fluorescence reading: 44910
[4]; dilution 10^−5
  Fluorescence reading: 13185
[4]; dilution 10^−6
  Fluorescence reading: 44865
[4]; dilution 10^−7
  Fluorescence reading: 9251
[4]; dilution 10^−8
  Fluorescence reading: 8137
[4]; dilution 10^−9
  Fluorescence reading: 44425
[4]; dilution 10^−10
  Fluorescence reading: 1663
[4]; dilution 10^−11
  Fluorescence reading: 1651
[4]; dilution 10^−12
  Fluorescence reading: 1691
[4]; dilution 10^−13
  Fluorescence reading: 1682
[5]; dilution 10^−3
  Fluorescence reading: 28160
[5]; dilution 10^−4
  Fluorescence reading: 27889
[5]; dilution 10^−5
  Fluorescence reading: 28439
[5]; dilution 10^−6
  Fluorescence reading: 27648
[5]; dilution 10^−7
  Fluorescence reading: 27385
[5]; dilution 10^−8
  Fluorescence reading: 27196
[5]; dilution 10^−9
  Fluorescence reading: 1974
[5]; dilution 10^−10
  Fluorescence reading: 2057
[5]; dilution 10^−11
  Fluorescence reading: 2002
[5]; dilution 10^−12
  Fluorescence reading: 1956
[5]; dilution 10^−13
  Fluorescence reading: 1907
[6]; dilution 10^−3
  Fluorescence reading: 12589
[6]; dilution 10^−4
  Fluorescence reading: 9810
[6]; dilution 10^−5
  Fluorescence reading: 7670
[6]; dilution 10^−6
  Fluorescence reading: 6806
[6]; dilution 10^−7
  Fluorescence reading: 5714
[6]; dilution 10^−8
  Fluorescence reading: 1715
[6]; dilution 10^−9
  Fluorescence reading: 1664
[6]; dilution 10^−10
  Fluorescence reading: 1660
[6]; dilution 10^−11
  Fluorescence reading: 1651
[6]; dilution 10^−12
  Fluorescence reading: 1660
[6]; dilution 10^−13
  Fluorescence reading: 1657
[7]; dilution 10^−3
  Fluorescence reading: 47178
[7]; dilution 10^−4
  Fluorescence reading: 49470
[7]; dilution 10^−5
  Fluorescence reading: 45804
[7]; dilution 10^−6
  Fluorescence reading: 45454
[7]; dilution 10^−7
  Fluorescence reading: 45637
[7]; dilution 10^−8
  Fluorescence reading: 43088
[7]; dilution 10^−9
  Fluorescence reading: 48320
[7]; dilution 10^−10
  Fluorescence reading: 1678
[7]; dilution 10^−11
  Fluorescence reading: 1641
[7]; dilution 10^−12
  Fluorescence reading: 1636
[7]; dilution 10^−13
  Fluorescence reading: 1621
[8]; dilution 10^−3
  Fluorescence reading: 40277
[8]; dilution 10^−4
  Fluorescence reading: 37262
[8]; dilution 10^−5
  Fluorescence reading: 34890
[8]; dilution 10^−6
  Fluorescence reading: 32034
[8]; dilution 10^−7
  Fluorescence reading: 31793
[8]; dilution 10^−8
  Fluorescence reading: 1911
[8]; dilution 10^−9
  Fluorescence reading: 1902
[8]; dilution 10^−10
  Fluorescence reading: 1972
[8]; dilution 10^−11
  Fluorescence reading: 1917
[8]; dilution 10^−12
  Fluorescence reading: 1935
[8]; dilution 10^−13
  Fluorescence reading: 1990
[9]; dilution 10^−3
  Fluorescence reading: 51755
[9]; dilution 10^−4
  Fluorescence reading: 50254
[9]; dilution 10^−5
  Fluorescence reading: 50166
[9]; dilution 10^−6
  Fluorescence reading: 50278
[9]; dilution 10^−7
  Fluorescence reading: 49882
[9]; dilution 10^−8
  Fluorescence reading: 47370
[9]; dilution 10^−9
  Fluorescence reading: 1816
[9]; dilution 10^−10
  Fluorescence reading: 1990
[9]; dilution 10^−11
  Fluorescence reading: 1960
[9]; dilution 10^−12
  Fluorescence reading: 1956
[9]; dilution 10^−13
  Fluorescence reading: 1911
[10]; dilution 10^−3
  Fluorescence reading: 46607
[10]; dilution 10^−4
  Fluorescence reading: 45207
[10]; dilution 10^−5
  Fluorescence reading: 44544
[10]; dilution 10^−6
  Fluorescence reading: 43559
[10]; dilution 10^−7
  Fluorescence reading: 41437
[10]; dilution 10^−8
  Fluorescence reading: 1678
[10]; dilution 10^−9
  Fluorescence reading: 1666
[10]; dilution 10^−10
  Fluorescence reading: 1666
[10]; dilution 10^−11
  Fluorescence reading: 1620
[10]; dilution 10^−12
  Fluorescence reading: 1706
[10]; dilution 10^−13
  Fluorescence reading: 1669
[11]; dilution 10^−3
  Fluorescence reading: 20988
[11]; dilution 10^−4
  Fluorescence reading: 21541
[11]; dilution 10^−5
  Fluorescence reading: 19899
[11]; dilution 10^−6
  Fluorescence reading: 19619
[11]; dilution 10^−7
  Fluorescence reading: 17228
[11]; dilution 10^−8
  Fluorescence reading: 1682
[11]; dilution 10^−9
  Fluorescence reading: 1676
[11]; dilution 10^−10
  Fluorescence reading: 1691
[11]; dilution 10^−11
  Fluorescence reading: 1636
[11]; dilution 10^−12
  Fluorescence reading: 1644
[11]; dilution 10^−13
  Fluorescence reading: 1669
